By ΔTm is commonly meant the shift of the melting midpoint relative to a reference. As usually defined, the IC50 is the concentration that gives 50% inhibition. A word on the T/C: it is the ratio of treated to control.

The record followed here is ChEMBL document CHEMBL4765407, “Design, synthesis and high antitumor potential of new unsymmetrical bisacridine derivatives towards human solid tumors, specifically pancreatic cancers and their unique ability to stabilize DNA G-quadruplexes” (Eur J Med Chem, 2020).

Structures are written as SMILES.

Assay [1] deals with NCI-H460. Briefly: Antitumour activity against human NCI-H460 cells xenografted in Crl:Nu-Foxnl nu mouse assessed as inhibition of tumour growth at total effective dose of 48 mg/kg, iv measured on day 23. The following applies: 552 h, time 23 day, read-out: TGI. Format: functional. On the technique in general: In xenograft studies the graft and the host belong to different species.

Assay [2] relates to Quadruplex DNA. Briefly: Stabilization of 5'-FAM/3'-TAMRA labeled telomeric G4 quadruplex DNA F21T (unknown origin) assessed as change in melting temperature at 10 microM measured after 15 mins by FRET assay. The class given is nucleic-acid assay.
Another assay deals with ASPC1. Kind of assay: Cytotoxicity against human ASPC1 cells assessed as reduction in cell viability measured after 72 hrs by SRB assay. Format: functional, cell-based. The following applies: ASPC1, 72 h.
Assay [3] in a line: Stabilization of ds 5'-FAM-d(TATAGCTATA-HEG-TATAGCTATA)-TAMRA-3' (unknown origin) assessed as change in melting temperature at 10 microM measured after 15 mins by FRET assay. The settings on record: Homo sapiens.
Assay [4] has as its system HCT-116. Kind of assay: Cytotoxicity against human HCT-116 cells assessed as reduction in cell viability measured after 72 hrs by SRB assay. Format: functional, cell-based. The settings on record: HCT-116, 72 h. On the technique in general: Sulforhodamine B stains cellular protein and so reports cell mass.
The test system of assay [5] is W256. Kind of assay: Antitumour activity against Walker 256 adenocarcinoma cells implanted in Wistar rat assessed as increase in animal survival rate by measuring T/C ratio at 2.5 mg/kg, ip qd for 3 days administered on day 3,4,5 after tumor cell transplantation. The following applies: time 3 day. Format: functional.
The next assay relates to PC-3. Kind of assay: Cytotoxicity against human PC-3 cells assessed as reduction in cell viability measured after 72 hrs by SRB assay. Format: functional, cell-based. The settings on record: PC-3, 72 h.
Another assay concerns MIA PaCa-2. Kind of assay: Cytotoxicity against human MIA PaCa-2 cells assessed as reduction in cell viability measured after 72 hrs by SRB assay. The settings on record: MIA PaCa-2, 72 h. Format: functional, cell-based.
Assay [6] relates to NCI-H460. Kind of assay: Cytotoxicity against human NCI-H460 cells assessed as reduction in cell viability measured after 72 hrs by SRB assay. The class given is functional, cell-based. The settings on record: NCI-H460, 72 h.
Assay [7] concerns HCT-116. Kind of assay: Antitumour activity against human HCT-116 cells xenografted in Crl:Nu-Foxnl nu mouse assessed as inhibition of tumour growth at total effective dose of 18 mg/kg, ip measured on day 14. Format: functional. The following applies: HCT-116, ip, 336 h, time 14 day, read-out: TGI.
Another assay relates to UMUC3. Briefly: Cytotoxicity against human UMUC3 cells assessed as reduction in cell viability measured after 72 hrs by SRB assay. Format: functional, cell-based. The following applies: UMUC3, 72 h.
The next assay has as its system MCF7. Briefly: Cytotoxicity against human MCF7 cells assessed as reduction in cell viability measured after 72 hrs by SRB assay. The class given is functional, cell-based. The following applies: MCF7, 72 h.
Assay [8] deals with Quadruplex DNA. Briefly: Stabilization of 5'-FAM/3'-TAMRA labeled c-Myc promoter G4 quadruplex DNA FPu18 (unknown origin) assessed as change in melting temperature at 10 microM measured after 15 mins by FRET assay. Format: nucleic-acid assay.
Assay [9] relates to HCT-116. Kind of assay: Antitumour activity against human HCT-116 cells xenografted in Crl:Nu-Foxnl nu mouse assessed as inhibition of tumour growth at total effective dose of 24 mg/kg, iv measured on day 30. The class given is functional. The following applies: HCT-116, iv, 720 h, time 30 day, read-out: TGI.
In assay [10] the test system is Quadruplex DNA. Kind of assay: Stabilization of 5'-FAM/3'-TAMRA labeled K-Ras G4 quadruplex DNA (unknown origin) assessed as change in melting temperature at 10 microM measured after 15 mins by FRET assay. Format: nucleic-acid assay.
The test system of assay [11] is DU-145. Kind of assay: Antitumour activity against human DU-145 cells xenografted in Crl:Nu-Foxnl nu mouse assessed as inhibition of tumour growth at total effective dose of 16 mg/kg, iv measured on day 35. Format: functional. The following applies: DU-145, iv, 840 h, time 35 day, read-out: TGI.
The test system of assay [12] is DU-145. Kind of assay: Cytotoxicity against human DU-145 cells assessed as reduction in cell viability measured after 72 hrs by SRB assay. Format: functional, cell-based. The following applies: DU-145, 72 h.
Assay [13] deals with PANC-1. Briefly: Cytotoxicity against human PANC-1 cells assessed as reduction in cell viability measured after 72 hrs by SRB assay. The class given is functional, cell-based. The settings on record: PANC-1, 72 h.
Assay [14] has as its system DU-145. Kind of assay: Antitumour activity against human DU-145 cells xenografted in Crl:Nu-Foxnl nu mouse assessed as inhibition of tumour growth at total effective dose of 8 mg/kg, iv measured on day 64. The following applies: DU-145, iv, 1536 h, time 64 day, read-out: TGI. The class given is functional.
In assay [15] the test system is MDA-MB-231. Briefly: Cytotoxicity against human MDA-MB-231 cells assessed as reduction in cell viability measured after 72 hrs by SRB assay. The following applies: MDA-MB-231, 72 h. The class given is functional, cell-based.
Another assay concerns BXPC-3. Briefly: Cytotoxicity against human BXPC-3 cells assessed as reduction in cell viability measured after 72 hrs by SRB assay. Format: functional, cell-based. The settings on record: BXPC-3, 72 h.
The subject of another assay is HT-29. Kind of assay: Cytotoxicity against human HT-29 cells assessed as reduction in cell viability measured after 72 hrs by SRB assay. Format: functional, cell-based. The settings on record: HT-29, 72 h.
Assay [16] relates to MDA-MB-231. Briefly: Antitumour activity against human MDA-MB-231 cells xenografted in Crl:Nu-Foxnl nu mouse assessed as inhibition of tumour growth at total effective dose of 40 mg/kg, iv measured on day 39. The following applies: MDA-MB-231, iv, 936 h, time 39 day, read-out: TGI. The class given is functional.
A further assay relates to Capan-2. Kind of assay: Cytotoxicity against human Capan-2 cells assessed as reduction in cell viability measured after 72 hrs by SRB assay. The settings on record: Capan-2, 72 h. Format: functional, cell-based.
Assay [17] has as its system PANC-1. Briefly: Antitumour activity against human PANC-1 cells xenografted in Crl:Nu-Foxnl nu mouse assessed as inhibition of tumour growth at total effective dose of 160 mg/kg, iv measured on day 26. The class given is functional. The settings on record: PANC-1, iv, 624 h, time 26 day, read-out: TGI.
The subject of assay [18] is HCT-116. Briefly: Antitumour activity against human HCT-116 cells xenografted in Crl:Nu-Foxnl nu mouse assessed as inhibition of tumour growth at total effective dose of 120 mg/kg, iv measured on day 15. The class given is functional. The following applies: HCT-116, iv, 360 h, time 15 day, read-out: TGI.
Assay [19] deals with W256. Kind of assay: Antitumour activity against Walker 256 adenocarcinoma cells implanted in Wistar rat assessed as increase in animal survival rate by measuring T/C ratio at 0.65 mg/kg, ip qd for 3 days administered on day 3,4,5 after tumor cell transplantation. The class given is functional. The settings on record: time 3 day.
The subject of assay [20] is PANC-1. Briefly: Antitumour activity against human PANC-1 cells xenografted in Crl:Nu-Foxnl nu mouse assessed as inhibition of tumour growth at total effective dose of 10 mg/kg, iv measured on day 45. Format: functional. The settings on record: PANC-1, iv, 1080 h, time 45 day, read-out: TGI.
The subject of assay [21] is NCI-H460. Briefly: Antitumour activity against human NCI-H460 cells xenografted in Crl:Nu-Foxnl nu mouse assessed as inhibition of tumour growth at total effective dose of 5 mg/kg, iv measured on day 15. The class given is functional. The following applies: 360 h, time 15 day, read-out: TGI.
The test system of assay [22] is NCI-H460. Kind of assay: Antitumour activity against human NCI-H460 cells xenografted in Crl:Nu-Foxnl nu mouse assessed as inhibition of tumour growth at total effective dose of 16 mg/kg, iv measured on day 14. The class given is functional. The following applies: 336 h, time 14 day, read-out: TGI.

Turning to `O=c1c2ccccc2[nH]c2c([N+](=O)[O-])ccc(NCCCN3CCN(CCCNc4c5ccccc5nc5cccc([N+](=O)[O-])c45)CC3)c12`, the inhibition in vivo at 48 mg/kg in the assay with NCI-H460 [1] was found to be 60%. Further, the ΔTm in the assay on Quadruplex DNA [2] is 8.5 °C; in assay [3], 3.2 °C; in the assay with Quadruplex DNA [8], 23.7 °C; in the assay on Quadruplex DNA [10] it was 25.1 °C. For the same compound, the IC50 in the assay with ASPC1 stood at 78 nM; in the assay on HCT-116 [4], 20 nM; in the assay with PC-3, 26 nM; in the assay with MIA PaCa-2, 28 nM; with NCI-H460 [6] it was 9 nM; in the assay with UMUC3 it was 17 nM. Besides, the IC50 with MCF7 came to 77 nM; in the assay on DU-145 [12], 11 nM; with PANC-1 [13], 56 nM; in the assay on MDA-MB-231 [15] it was 28 nM. The T/C in the assay on W256 [5] came to 400%. In addition, the inhibition in vivo at 18 mg/kg in the assay on HCT-116 [7] is 52%. Also, the inhibition in vivo at 24 mg/kg in the assay with HCT-116 [9] was found to be 34%. Besides, the inhibition in vivo at 16 mg/kg with DU-145 [11] is 77%. Moreover, the inhibition in vivo at 8 mg/kg in the assay with DU-145 [14] was 81%.
Consider `Cc1ccc([N+](=O)[O-])c2c(NCCCN3CCN(CCCNc4ccc5ncn6c7ccc(O)cc7c(=O)c4c56)CC3)c3ccccc3nc12`, for which the half-inhibitory concentration (IC50) with BXPC-3 came out at 354 nM; with ASPC1, 343 nM; with HT-29 it was 237 nM; with HCT-116 [4], 51 nM; in the assay on PC-3 it was 130 nM; in the assay on MIA PaCa-2, 38 nM. Also, the IC50 turned out to be 74 nM with NCI-H460 [6]; 68 nM with Capan-2; 35 nM with UMUC3; 244 nM in the assay on MCF7; 67 nM in the assay on DU-145 [12]; 42 nM in the assay with PANC-1 [13]. The IC50 in the assay with MDA-MB-231 [15] amounted to 17 nM. In addition, the ΔTm turned out to be 16.4 °C in the assay with Quadruplex DNA [2], 4.4 °C in assay [3], 21.3 °C in the assay on Quadruplex DNA [8] and 18.8 °C in the assay with Quadruplex DNA [10]. For the same compound, in the assay with MDA-MB-231 [16], the inhibition in vivo at 40 mg/kg came out at 12%. Moreover, in the assay with PANC-1 [17], the inhibition in vivo at 160 mg/kg was 61%. In the assay on HCT-116 [18], the inhibition in vivo at 120 mg/kg worked out at 4%.
As for `CN(CCCNc1c2ccccc2nc2cccc([N+](=O)[O-])c12)CCCNc1ccc([N+](=O)[O-])c2[nH]c3ccccc3c(=O)c12`, in the assay on W256 [19], the T/C was found to be 450%. Also, the ΔTm with Quadruplex DNA [2] turned out to be 24.5 °C; with Quadruplex DNA [8], 19.4 °C; with Quadruplex DNA [10], 27.4 °C. The IC50 with ASPC1 was 66 nM; in the assay on HT-29, 67 nM; in the assay with HCT-116 [4], 260 nM; with PC-3, 51 nM; in the assay on MIA PaCa-2, 103 nM; in the assay on NCI-H460 [6] it was 10 nM. Further, the IC50 came to 29 nM in the assay on UMUC3; 695 nM in the assay with MCF7; 24 nM in the assay on DU-145 [12]; 28 nM in the assay with PANC-1 [13]; 28 nM in the assay with MDA-MB-231 [15]. For the same compound, in the assay with PANC-1 [20], the inhibition in vivo at 10 mg/kg came out at 23%. For the same compound, in the assay with NCI-H460 [21], the inhibition in vivo at 5 mg/kg worked out at 14%. Besides, the inhibition in vivo at 16 mg/kg with NCI-H460 [22] amounted to 35%.
